We go through twelve compounds from PubChem BioAssay (NCI).

Common to all, as to test: inhibition of tumour cell growth, NCI panel, 48 h
Experiment [1] concerns CAKI-1 renal.
Experiment [2] concerns EKVX NSCLC.
Experiment [3] concerns K-562 leukemia.
The subject of experiment [4] is KM12 colon.
Experiment [5] relates to SF-295 CNS.
Experiment [6] deals with SK-OV-3 ovarian.
The subject of experiment [7] is UO-31 renal.
Experiment [8] concerns MDA-MB-231 breast.
Experiment [9] relates to NCI/ADR-RES ovarian.
The test system of experiment [10] is PC-3 prostate.

Structures are written as SMILES.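 All cell lines were grown in 96-well plates and treated with compound for 48 hours. At the GI50, growth is halved. TGI: total growth inhibition.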

On to `COC12OCCN(C)C1=CC(=O)C1=NNC(C)C12` (centres undefined), for which the TGI in experiment [1], in experiment [2], in [3], in [4], in [5] and in experiment [6] was more than 100 µM throughout. The same compound yielded a TGI in experiment [7] of more than 100 µM.
For `COc1cc(/C=C\c2cc(OC)c(OC)c(OC)c2)cc(N/C=C\C(=O)c2cc(OC)c(OC)c(OC)c2)c1OC`, the GI50 in [1] was 3.37 µM; in experiment [3] it was 3.38 µM; in experiment [4] it was 3.21 µM; in experiment [8], 4.01 µM; in [9], 3.12 µM; in [10], 2.89 µM. In addition, the GI50 was 2.4 µM in [5], 2.91 µM in experiment [6] and 2.63 µM in experiment [7]. Moreover, the TGI in experiment [1], in experiment [3], in experiment [4], in [8], in experiment [9] and in [10] was more than 100 µM in each case. Moreover, the TGI in experiment [5], in experiment [6] and in [7] was more than 100 µM throughout.
With `COc1cccc2c1C(=O)c1c(O)c3c(c(O)c1C2=O)C[C@@](O)(/C(C)=N/NC(=O)c1ccc(Cl)cc1)C[C@@H]3OC1CC(N)C(O)C(C)O1` (some centres undefined), the GI50 was 0.708 µM in experiment [1]; 0.326 µM in experiment [4]; 0.603 µM in [8]; 4.6 µM in experiment [9]; 0.293 µM in experiment [10]; 0.236 µM in experiment [5]. Moreover, the GI50 was 0.481 µM in experiment [6] and 0.488 µM in experiment [7]. Also, the TGI was found to be 5.98 µM in experiment [1]; 2.44 µM in [4]; 2.77 µM in [8]; 44.3 µM in [9]; 1.6 µM in [10]; 2.2 µM in [5]. The TGI in [6] is 13.8 µM; in experiment [7] it was 4.55 µM.
On to `[N-]=[N+]=N/C1=C/CCCCC(=O)C1`, for which the TGI in [1], in experiment [2], in [3], in experiment [6] and in experiment [7] was more than 100 µM in each case.
`COc1ccc(C(O)(CCC(C)C)C(CN2CCOCC2)c2ccc(Cl)cc2)cc1` (centres undefined): the GI50 in experiment [1] was 14 µM; in [3], 15.1 µM; in experiment [4] it was 11.4 µM; in experiment [8] it was 12.1 µM; in experiment [9] it was 11.1 µM; in [10], 6.03 µM. For the same compound, the GI50 in [5] is 13.4 µM; in experiment [6], 21.8 µM; in experiment [7], 11.3 µM. Further, the TGI came to 31.7 µM in experiment [1]; 47 µM in [3]; 26.2 µM in experiment [4]; 27.2 µM in experiment [8]; 34.2 µM in experiment [9]; 21 µM in experiment [10]. In addition, the TGI in experiment [5] is 29.8 µM; in [6], 75.8 µM; in experiment [7], 25.9 µM.
`CCN(CC)CCSc1c2ccccc2nc2c(OC)ccc(OC)c12`: the TGI in experiment [1] is more than 22.2 µM; in [2] it was more than 100 µM; in [3] it was more than 24.5 µM; in experiment [4] it was 16.8 µM; in experiment [5], 59.4 µM; in experiment [6], 69.2 µM. In addition, the TGI in experiment [7] is 33.9 µM.
With `O=C1CCC(=O)c2c1c(O)c1ccncc1c2O`, the TGI came out at 42.4 µM in [1]; 47.6 µM in [2]; 44 µM in [3]; 38.9 µM in experiment [4]; 36.4 µM in [5]; 98.8 µM in [6]. The compound further had a TGI in [7] of 31.4 µM.
On to `O=C1c2cc3c(cc2-c2c1c1cc(Cl)c(Cl)cc1c(=O)n2C[C@H](O)CO)OCO3`, for which the GI50 in [2] is 0.0243 µM; in experiment [3], less than 0.01 µM; in [8], 0.0796 µM; in experiment [9], less than 0.01 µM; in [5] it was less than 0.01 µM; in experiment [6], less than 0.01 µM. The TGI is 19 µM in experiment [2]; more than 100 µM in experiment [3]; 1.66 µM in [8]; 0.0184 µM in [9]; 0.0536 µM in experiment [6].
In the case of `COc1ccc(-c2nsc3c2NC(=O)CC3c2cccc(OC)c2)cc1` (centres undefined), the GI50 in experiment [1] is 1.38 µM; in [3], 0.358 µM; in experiment [4], 0.505 µM; in experiment [8] it was 1.17 µM; in [9], 0.42 µM; in experiment [10], 2.45 µM. For the same compound, the GI50 in [5] was 1.54 µM; in experiment [6], 1.45 µM; in experiment [7], 3.1 µM. Also, the TGI in experiment [1] is more than 100 µM; in experiment [3], more than 100 µM; in experiment [4], more than 100 µM; in experiment [8] it was more than 100 µM; in experiment [9], 2.27 µM; in [10] it was more than 100 µM. Also, the TGI is 12.4 µM in [5], 7.43 µM in [6] and more than 100 µM in experiment [7].
In the case of `O=[N+]([O-])c1ccc(CI)cc1`, the GI50 in [1] is 1.91 µM; in [3] it was 0.404 µM; in experiment [4], 3.52 µM; in experiment [8], 1.23 µM; in experiment [9] it was 3.15 µM; in experiment [5] it was 3.76 µM. In addition, the values for the GI50 in experiment [6] and in experiment [7] were 4.53 µM and 1.79 µM, respectively. The TGI stood at 3.98 µM in experiment [1]; 2.95 µM in experiment [3]; 12 µM in experiment [4]; 4.08 µM in experiment [8]; 11.2 µM in [9]; 13.7 µM in [5]. Besides, the TGI amounted to 15.5 µM in experiment [6] and 3.59 µM in experiment [7].
As to `C=COC(=O)N[C@H]1CCc2cc(OC)c(OC)c(OC)c2-c2ccc(SC)c(=O)cc21`, the TGI in experiment [1] was 45.9 µM; in [2] it was more than 100 µM; in experiment [3] it was more than 31.6 µM; in experiment [4], 0.0388 µM; in experiment [8], 1.88 µM; in experiment [10], more than 100 µM. The results for the TGI in experiment [5], in experiment [6] and in experiment [7] were 0.0769 µM, 3.5 µM and 74.9 µM, respectively.
Regarding `COC(=O)c1s/c(=N\C(=S)N(C)C)n(-c2ccc(Cl)cc2)c1C(=O)OC`, the TGI was more than 100 µM in experiment [1]; more than 100 µM in [2]; more than 100 µM in [3]; more than 100 µM in experiment [4]; more than 100 µM in experiment [5]; more than 10 µM in [6]. Moreover, the TGI in experiment [7] was more than 100 µM.
